Data published in patent US7425557B2, “Inhibitors of glycogen synthase kinase 3” (Novartis Vaccines and Diagnostics, Inc., priority 1998, dated 2008).

Biological target: human GSK3β (Homo sapiens, UniProt P49841)
Experiment: Screening for GSK3 inhibitory activity using a cell-free assay
Assay type: biochemical
Settings: read-out: IC50 with respect to GSK3
Outline: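 Radiometric cell-free assay with recombinant human GSK3β phosphorylating a biotinylated peptide substrate for 3 h. Reactions were stopped with 50 μM ATP/20 mM EDTA and captured on streptavidin plates. Incorporated radiolabel was counted by scintillation and plotted against compound concentration.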

Sequence of human GSK3β (P49841 whole entry): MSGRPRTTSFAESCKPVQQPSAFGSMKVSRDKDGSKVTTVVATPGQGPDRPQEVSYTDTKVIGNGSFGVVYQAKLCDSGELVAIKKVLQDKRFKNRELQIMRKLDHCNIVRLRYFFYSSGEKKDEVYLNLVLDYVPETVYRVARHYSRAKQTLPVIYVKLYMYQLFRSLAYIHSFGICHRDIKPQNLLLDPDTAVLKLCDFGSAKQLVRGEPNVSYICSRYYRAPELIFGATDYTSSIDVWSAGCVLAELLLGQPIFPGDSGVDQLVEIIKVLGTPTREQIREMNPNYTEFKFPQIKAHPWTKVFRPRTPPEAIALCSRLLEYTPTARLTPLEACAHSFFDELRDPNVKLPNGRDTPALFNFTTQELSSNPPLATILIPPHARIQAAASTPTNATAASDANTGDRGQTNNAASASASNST

IC50 | SMILES
≤ 10 µM | O=[N+]([O-])c1ccc(-c2ccnc(NCCNc3ccccn3)n2)cc1 [[4-(4-nitrophenyl)pyrimidin-2-yl][2-(2-pyridylamino)ethyl]amine]
≤ 10 µM | COc1cccc(-c2cccc(CNc3nccc(-c4ccc(C(N)=O)cc4)n3)c2)c1 [4-[2-({[3-(3-methoxyphenyl)phenyl]methyl}amino)pyrimidin-4-yl]benzamide]
≤ 1 µM | CCOC(=O)c1cnc(NCCNc2ccc([N+](=O)[O-])cn2)nc1-c1ccc(F)cc1 [ethyl 4-(4-fluorophenyl)-2-({2-[(5-nitro(2-pyridyl))amino]ethyl}amino)pyrimidine-5-carboxylate]
≤ 10 µM | Cc1nc(C)c(-c2ccnc(NCCNc3ccc([N+](=O)[O-])cn3)n2)s1 [[4-(2,4-dimethyl(1,3-thiazol-5-yl))pyrimidin-2-yl]{2-[(5-nitro(2-pyridyl))-amino]ethyl}amine]
≤ 1 µM | O=[N+]([O-])c1ccc(NCCN(CCN2CCOCC2)c2ncc(-n3ccnc3)c(-c3ccc(Cl)cc3Cl)n2)nc1 [[4-(2,4-dichlorophenyl)-5-imidazolylpyrimidin-2-yl](2-morpholin-4-ylethyl){2-[(5-nitro(2-pyridyl))amino]ethyl}amine]
≤ 10 µM | CCOC(=O)c1cnc(NCCNc2ccc([N+](=O)[O-])cn2)nc1-c1cncc(Br)c1 [ethyl 4-(5-bromo(3-pyridyl))-2-({2-[(5-nitro(2-pyridyl))amino]ethyl}amino)pyrimidine-5-carboxylate]
≤ 10 µM | COc1ccc(OC)c(CCNc2nccc(-c3cccnc3)n2)c1 [[2-(2,5-dimethoxyphenyl)ethyl](4-(3-pyridyl)pyrimidin-2-yl)amine]
≤ 1 µM | NC(=O)c1ccc(-c2ccnc(NCCc3ccccn3)n2)cc1 [4-{2-[(2-(2-pyridyl)ethyl)amino]pyrimidin-4-yl}benzamide]
≤ 1 µM | N#Cc1ccc(-c2nc(NCCNc3ccc([N+](=O)[O-])cn3)ncc2C(=O)OCCN2CCOCC2)cc1 [2-morpholin-4-ylethyl 4-(4-cyanophenyl)-2-({2-[(5-nitro(2-pyridyl))amino]ethyl}-amino)pyrimidine-5-carboxylate]
≤ 10 µM | COc1ccc(CNC(=O)c2ccc(-c3ccnc(NCCNc4ccc([N+](=O)[O-])cn4)n3)cc2)cc1OC [N-[(3,4-dimethoxyphenyl)methyl]{4-[2-({2-[(5-nitro(2-pyridyl))amino]ethyl}amino)pyrimidin-4-yl]phenyl}carboxamide]
≤ 1 µM | N#Cc1ccc(-c2nc(NCCNc3ccc([N+](=O)[O-])cn3)ncc2C(=O)NC(CO)C(N)=O)cc1 (stereo not shown) [N-(1-carbamoyl-2-hydroxyethyl)[4-(4-cyanophenyl)-2-({2-[(5-nitro(2-pyridyl))-amino]ethyl}amino)pyrimidin-5-yl]carboxamide]
≤ 1 µM | CN(C)C1CC(=O)N(c2cnc(NCCNc3ccc([N+](=O)[O-])c(N)n3)nc2-c2ccc(Cl)cc2Cl)C1=O (stereo not shown) [1-[2-({2-[(6-amino-5-nitro(2-pyridyl))amino]ethyl}amino)-4-(2,4-dichlorophenyl)pyrimidin-5-yl]-3-(dimethylamino)pyrrolidine-2,5-dione]
≤ 1 µM | Cn1ccnc1-c1cnc(NCCNc2ccc([N+](=O)[O-])cn2)nc1-c1ccc(Cl)cc1Cl [[4-(2,4-dichlorophenyl)-5-(1-methylimidazol-2-yl)pyrimidin-2-yl]{2-[(5-nitro(2-pyridyl))amino]-ethyl}amine]
≤ 10 µM | O=[N+]([O-])c1ccc(NCCNc2ccc([N+](=O)[O-])c(NCc3ccccc3)n2)nc1 [{2-[(5-nitro(2-pyridyl))amino]ethyl}{5-nitro-6-[benzylamino](2-pyridyl)}amine]
≤ 1 µM | O=C(O)c1c(-c2ccc([N+](=O)[O-])cc2)nc(NCCNc2ccc([N+](=O)[O-])cn2)nc1-c1cccc(O)c1 [4-(3-hydroxyphenyl)-2-({2-[(5-nitro(2-pyridyl))amino]ethyl}amino)-6-(4-nitrophenyl)pyrimidine-5-carboxylic acid]
≤ 1 µM | Cc1nccn1-c1cnc(NCCNc2ccc([N+](=O)[O-])c(N)n2)nc1-c1ccc(Cl)cc1Cl
≤ 1 µM | N#Cc1ccc(-c2nc(NCCNc3ccc([N+](=O)[O-])cn3)ncc2-c2ncc[nH]2)cc1 [4-[5-imidazol-2-yl-2-({2-[(5-nitro(2-pyridyl))amino]ethyl}amino)pyrimidin-4-yl]benzenecarbonitrile]
≤ 10 µM | CCOC(=O)c1cnc(NCCNc2ccc([N+](=O)[O-])cn2)nc1-c1cnc2ccccc2c1 [ethyl 2-({2-[(5-nitro(2-pyridyl))amino]ethyl}amino)-4-(3-quinolyl)pyrimidine-5-carboxylate]
≤ 10 µM | N#Cc1cnc(NCCNc2ccc([N+](=O)[O-])c(N)n2)nc1-c1ccc(Cl)c(Cl)c1 [2-({2-[(6-amino-5-nitro(2-pyridyl))amino]ethyl}amino)-4-(3,4-dichlorophenyl)pyrimidine-5-carbonitrile]
≤ 1 µM | CCOC(=O)c1cnc(NCCNc2ccc(C#N)cn2)nc1-c1ccc(C#N)cc1 [ethyl 2-({2-[(5-cyano(2-pyridyl))amino]ethyl}amino)-4-(4-cyanophenyl)pyrimidine-5-carboxylate]

IC50 | SMILES
≤ 1 µM | CCOC(=O)c1c(-c2ccncc2)nc(NCCNc2ccc([N+](=O)[O-])cn2)nc1-c1ccc(C(N)=O)cc1
≤ 10 µM | CCOC(=O)c1cnc(NCCNc2ccc([N+](=O)[O-])cn2)nc1-c1cc(Cl)cc(Cl)c1 [ethyl 4-(3,5-dichlorophenyl)-2-({2-[(5-nitro(2-pyridyl))amino]ethyl}amino)-pyrimidine-5-carboxylate]
≤ 1 µM | Nc1nc(NCCNc2ccc(-n3ccnc3)c(-c3ccc(Cl)cc3Cl)n2)ccc1[N+](=O)[O-] [{2-[(6-amino-5-nitro(2-pyridyl))amino]ethyl}[6-(2,4-dichlorophenyl)-5-imidazolyl(2-pyridyl)]amine]
≤ 1 µM | Nc1nc(NCCNc2ncc(-n3nnnc3C(F)(F)F)c(-c3ccc(Cl)cc3Cl)n2)ccc1[N+](=O)[O-] [{2-[(6-amino-5-nitro(2-pyridyl))amino]ethyl}{4-(2,4-dichlorophenyl)-5-[5-(trifluoromethyl)(1,2,3,4-tetraazolyl)]pyrimidin-2-yl}amine]
≤ 1 µM | N#Cc1ccc(-c2nc(NCCNc3ccc([N+](=O)[O-])cn3)ncc2C(=O)NCC(N)=O)cc1 [N-(carbamoylmethyl)[4-(4-cyanophenyl)-2-({2-[(5-nitro(2-pyridyl))amino]ethyl}amino)pyrimidin-5-yl]carboxamide]
≤ 10 µM | NC(=O)c1ccc(-c2ccnc(NCCCOc3ccc4ncccc4c3)n2)cc1 [4-{2-[(3-(6-quinolyloxy)propyl)-amino]pyrimidin-4-yl}benzamide]
≤ 10 µM | O=C(NCc1cccc(C(F)(F)F)c1)c1ccc(-c2ccnc(NCCNc3ccc([N+](=O)[O-])cn3)n2)cc1 [{4-[2-({2-[(5-nitro(2-pyridyl))amino]ethyl}amino)pyrimidin-4-yl]phenyl}-N-{[3-(trifluoromethyl)phenyl]methyl}carboxamide]
≤ 10 µM | O=C(NCC1CCCO1)c1ccc(-c2ccnc(NCCNc3ccc([N+](=O)[O-])cn3)n2)cc1 (stereo not shown) [{4-[2-({2-[(5-nitro(2-pyridyl))amino]ethyl}amino)pyrimidin-4-yl]phenyl}-N-(oxolan-2-ylmethyl)carboxamide]
≤ 1 µM | O=[N+]([O-])c1ccc(NCCN(CCN2CCCC2)c2ncc(-n3ccnc3)c(-c3ccc(Cl)cc3Cl)n2)nc1 [[4-(2,4-dichlorophenyl)-5-imidazolylpyrimidin-2-yl]{2-[(5-nitro(2-pyridyl))amino]ethyl}(2-pyrrolidinylethyl)amine]
≤ 10 µM | COc1cccc(CNc2nccc(-c3ccc(C(N)=O)cc3)n2)c1 [4-(2-{[(3-methoxyphenyl)methyl]-amino}pyrimidin-4-yl)benzamide]
≤ 10 µM | Clc1ccc(-c2ccnc(NCCNc3ccccn3)n2)c(Cl)c1 [[4-(2,4-dichlorophenyl)pyrimidin-2-yl][2-(2-pyridylamino)ethyl]amine]
≤ 10 µM | O=C(NCc1cccs1)c1ccc(-c2ccnc(NCCNc3ccc([N+](=O)[O-])cn3)n2)cc1 [{4-[2-({2-[(5-nitro(2-pyridyl))amino]ethyl}amino)-pyrimidin-4-yl]phenyl}-N-(2-thienylmethyl)carboxamide]
≤ 10 µM | CCOC(=O)c1cnc(NCCNc2ccc([N+](=O)[O-])cn2)nc1-c1ccc(N(CC)CC)cc1 [ethyl 4-[4-(diethylamino)phenyl]-2-({2-[(5-nitro(2-pyridyl))amino]ethyl}-amino)pyrimidine-5-carboxylate]
≤ 1 µM | CCOC(=O)c1cnc(NCCNc2ccc([N+](=O)[O-])cn2)nc1-c1ccc([N+](=O)[O-])cc1
≤ 1 µM | CCOC(=O)c1cnc(NCCNc2ccc([N+](=O)[O-])cn2)nc1-c1ccc(Cl)cc1Cl [ethyl 4-(2,4-dichlorophenyl)-2-({2-[(5-nitro(2-pyridyl))amino]ethyl}amino)-pyrimidine-5-carboxylate]
≤ 1 µM | O=C(NCc1cccc(Br)c1)c1ccc(-c2ccnc(NCCNc3ncccn3)n2)cc1 [N-[(3-bromophenyl)methyl][4-(2-{[2-(pyrimidin-2-ylamino)ethyl]amino}pyrimidin-4-yl)phenyl]carboxamide]
≤ 1 µM | CC(C)(C)NC(=O)c1cnc(NCCNc2ccc([N+](=O)[O-])cn2)nc1-c1ccc(C#N)cc1 [N-(tert-butyl)[4-(4-cyano-phenyl)-2-({2-[(5-nitro(2-pyridyl))amino]ethyl}amino)pyrimidin-5-yl]carboxamide]
≤ 1 µM | CCOC(=O)c1cnc(NCCNc2ccc([N+](=O)[O-])cn2)nc1-c1ccncc1 [ethyl 2-({2-[(5-nitro(2-pyridyl))amino]ethyl}amino)-4-(4-pyridyl)pyrimidine-5-carboxylate]
≤ 1 µM | CN1CCN(c2cnc(NCCNc3ccc([N+](=O)[O-])cn3)nc2-c2ccc(Cl)cc2Cl)CC1 [[4-(2,4-dichlorophenyl)-5-(4-methylpiperazinyl)pyrimidin-2-yl]{2-[(5-nitro(2-pyridyl))amino]ethyl}amine]
≤ 1 µM | COc1ccc(OC)c(CCNc2nccc(-c3ccc(C(N)=O)cc3)n2)c1 [4-(2-{[2-(2,5-dimethoxyphenyl)ethyl]amino}pyrimidin-4-yl)benzamide]
